Assay results: publication PMC6572189, “Functional Fragments of AIMP1-Derived Peptide (AdP) and Optimized Hydrosol for Their Topical Deposition by Box-Behnken Design” (Molecules, 2019)

Key:
[1] = system: Foreskin fibroblasts (HFF-1); test: Fibroblast proliferation assay (CCK-8); assay type: cell-based; settings: Fr3 0.1 μg/mL versus EGF 1 μg/mL; HFF-1 foreskin fibroblasts, 48 h, CCK-8 assay
Protocol: (§1) Figure 1 Fibroblast-activating (FA) and melanin-inhibiting (MI) domain mapping of AIMP1-derived peptide (AdP): (a) Foreskin fibroblasts were treated with EGF (1 μg/mL), AdP (0.1 μg/mL), and fragments of AdP (Fr1–Fr6; 0.1 μg/mL). After 24 h incubation, procollagen type I was determined in cultured media by ELISA; (b) after 48 h incubation, CCK8-assay was performed to monitor the proliferation of foreskin fibroblasts; (c) melanocytes, pre-treated with α-MSH (0.5 μM), were treated with albutin (At, 10 μM), AdP (1 μg/mL) and fragments of AdP (Fr1–Fr6, 1 μg/mL). After 48 h incubation, intracellular melanin was measured.
Foreskin fibroblast cells (HFF-1; 3 × 10^3 cells/well) were seeded into 96-well plate and cultivated. Cells were replaced with serum-free media and then treated with AdP, hEGF, and fragments of AdP for 48 h. Cell proliferation was determined CCK-8 assay (Dojindo, Kumamoto, Japan) in accordance with the manufacturer instructions. Proliferation was normalized by the proliferation of control group.

[2] = system: Foreskin fibroblasts (HFF-1); test: Collagen ELISA (procollagen type I in culture media); assay type: cell-based; settings: Fr3 0.1 μg/mL versus EGF 1 μg/mL, HFF-1 foreskin fibroblasts, 24 h
Protocol: as §1
Foreskin fibroblast cells (HFF-1; 5 × 10^4 cells/well) were seeded at a 24-well culture plate. Before peptide treatment, cells were pre-incubated with serum-free DMEM media for 6 h. Cells were treated with AdP, hEGF (Sigma-Aldrich, St. Louis, MO, USA) and fragments of AdP for 24 h. After 24 h treatment, media were harvested for collagen ELISA assay. Procollagen type I in the culture media was determined by Procollagen type I ELISA kit (Takara, Kusatsu, Japan) in accordance with the manufacturer instructions. Procollagen type I amount in the media was normalized by the Procollagen type I amount of control group.

[3] = system: keratinocytes (HaCaT cells); test: Cytotoxicity test (CCK-8); assay type: cell-based; settings: 10 or 100 μg/mL (up to 100 μg/mL), 24 h, CCK-8 assay, n = 3
Protocol: (§2) Figure 2 Non-cytotoxicity and non-immunogenicity of FA-AdP and MI-AdP: (a) To test cytotoxicity of FA-AdP and MI-AdP, keratinocytes (HaCaT cells) were incubated with doxorubicin (Dox, 10 μM), AdP (100 μg/mL), FA-AdP (10 or 100 μg/mL), and MI-AdP (10 or 100 μg/mL). After 24 h incubation, cytotoxicity was determined by CCK-8 assay; (b) for the immunogenicity test, monocytes (THP-1 cells) were used. After 12 h incubation with LPS (50 ng/mL), AdP (100 μg/mL), FA-AdP (10 or 100 μg/mL), and MI-AdP (10 or 100 μg/mL), the TNF-α level was measured in cultured media by ELISA.
(§3) The safety of FA-AdP and MI-AdP was verified in terms of cytotoxicity and immunogenicity. To test the cytotoxicity of the peptides, keratinocytes (HaCaT; 3 × 10^3 cells/well) were seeded into 96-well plate and cultivated. Cells were incubated with doxorubicin (Dox, 10 μM), AdP (100 μg/mL), FA-AdP (10 or 100 μg/mL), or MI-AdP (10 or 100 μg/mL). After 24 h incubation, cytotoxicity was determined by CCK-8 assay (Dojindo) according to the manufacturer’s manual. The immunogenicity of the peptides was evaluated by performing TNF-α ELISA. THP-1 cells (5 × 10^4 cells/well) were seeded on a 24-well plate. Cells were pre-incubated with 1% FBS containing media for 6 h. […] TNF-α amount in conditioned media was assessed by human TNF-α ELISA kit (BD Bioscience, San Jose, CA, USA) in accordance with the manufacturer instructions. […]

monocytes (THP-1 cells) = test: Immunogenicity test (TNF-α ELISA); assay type: cell-based, human; settings: 10 or 100 μg/mL, 12 h, TNF-α ELISA of cultured media, normalized to control, n = 3
Protocol: as §2, §3

Melanocytes (B16F10) = test: Measurement of intracellular melanin in α-MSH induced melanocytes; assay type: cell-based; settings: α-MSH 0.5 μM, 48 h
Protocol: as §1
Melanocytes (B16F10; 1 × 10^5 cells/well) were seeded into 6-well plate and cultivated. To induce melanin synthesis, α-MSH (0.5 μM), melanin inducer, was used. AdP and fragments of AdP were treated with α-MSH (0.5 μM) for 48 h. Intracellular melanin and tyrosinase activity were monitored as previously reported. Briefly, melanocytes (1 × 10^5 cells,) were lysed with 1 N NaOH at 70 °C for 1 h. Intracellular melanin was determined in lysed samples by 490 nm wavelength absorbance using microplate reader (Synergy 2, BioTek, Winooski, VM, USA).

Substance	fibroblast proliferation, more potent than EGF [1] [%]	collagen induction, more potent than EGF [2] [%]	cytotoxicity in keratinocytes [3]	TNF-α level compared with that of the control group (monocytes (THP-1 cells))	inhibition effect on melanin synthesis, higher than albutin (Melanocytes (B16F10); Fr4 1 μg/mL versus albutin 10 μM) [%]	inhibition of melanin synthesis induced by α-MSH, compared with AdP (Melanocytes (B16F10); 1 μg/mL, intracellular melanin by absorbance at 490 nm, mean n = 3, versus AdP 1 μg/mL)
Fr3: 14–28 residue fragment of AIMP1; fibroblast-activating domain of AdP (KGAEADQIIEYLKQQ; UniProt Q12904 14-28, looked up, fragment)	10	15	no cytotoxicity	no significant difference		
Fr4: 18–32 residue fragment of AIMP1; melanocyte-inhibiting domain of AdP (ADQIIEYLKQQVSLL; UniProt Q12904 18-32, looked up, fragment)			no cytotoxicity	no significant difference	35	comparable inhibition
